Patent US20200270232A1, “INHIBITORS OF INTEGRATED STRESS RESPONSE PATHWAY” (Praxis Biotech LLC, priority 2019, published 2020)
Blank lines part the entries; values can stand above or below the compound they belong to.

What was measured:
ATF4 = ATF4 expression inhibition assay (ATF4 luciferase reporter); assay type: cell-based; settings: Homo sapiens, HEK-293T; HEK293T cells carrying the ATF4 luciferase reporter, 100 nM thapsigargin (Tg), 3 hours; read-out: ATF4 inhbition IC50
Experimental: The ATF4 reporter was prepared by fusing the human full length 5′UTR of ATF4 (NCBI Accession No. BC022088.2) upstream of the firefly luciferase coding sequence lacking the initiator methionine. The fused sequence was cloned into pLenti-EF1a-C-Myc-DDK-IRES-Puro cloning vector (Origen # PS 100085) using standard methods. Virus production was carried out by using Lenti-X™ Packaging Single Shots Protocol (Clonetech #631276). Viral particles were used to transduce HEK293T cells (ATCC # CRL-3216, ATCC Manassas, Va.), which were subsequently selected with puromycin to generate stable cell line. Cells were maintained at 37° C. and 5% CO2 in DMEM-F12 (Hyclone # SH30023.02) supplemented with 10% heat-inactivated fetal bovine serum (Gibco #16000-044), 2 mM L-glutamine (Gibco #25030-081), 100 U/ml penicillin, and 100 μg/ml streptomycin (Gibco #15140-122).
HEK293T cells carrying the ATF4 luciferase reporter were plated on 96-well plates (Nunc) at 10,000 cells per well. Cells were treated two days after seeding with 100 nM thapsigargin (Tg) (Sigma-Aldrich # T9033) in the presence of different concentrations of selected compounds ranging from 1 nM to 10 μM. Cells without treatment or cells treated with Tg alone were used as controls. Assay plates containing cells were incubated for 3 hours at 37° C.
Luciferase reactions were performed using Luciferase Assay System (Promega # E1501) as specified by the manufacturer. Luminescence was read with an integration time of 1 s and a gain of 110 using a Cytation-5 multi-mode microplate reader (BioTek). Relative luminescence units were normalized to Tg treatment (0% inhibition) and untreated cells (100% inhibition) and the percentage of ATF4 inhibition was calculated.
Accordingly, inhibition of ATF4 expression as a result of the test compound indicates suppression of the ISR pathway.

[1] = test system: Chinese hamster ovary (CHO) cells; test: Protein translation assay (puromycin labelling, western blot); assay type: cell-based; settings: 2 hours, media alone = 100%; for activity at 1 µM: Cricetulus griseus, unstressed CHO cells (without Tg), 1 μM test compound, read-out: % Protein synthesis relative to untreated (1 μM test compound); for % Recovery of protein synthesis (1 μM test compound): stressed CHO cells, 300 nM Tg, Tg alone = 0%
Experimental: Chinese hamster ovary (CHO) cells were maintained at 37° C. and 5% C02 in Dulbecco's Modified Eagle's Media (DMEM) supplemented with 10% fetal bovine serum, 2 mM L-glutamine, 100 U/ml penicillin, and 100 μg/ml streptomycin. After reaching 80% of confluence, cells were detached and seeded on 6 well plates in complete media, allowed to recover overnight and treated for 2 hours with 1 μM of the test compound (to assess protein synthesis levels in unstressed condition), or for 2 hours with 300 nM Tg in the presence of 1 μM of the test compound (to assess the recovery of protein synthesis in a stressed condition). Cells with Tg alone were used as controls.
After the 2 hours treatments, media were replaced by adding 10 μg/ml puromycin (Sigma Aldrich # P8833) in complete media for 30 min. Media were removed and cells were lysed with SDS-PAGE lysis buffer. Lysates were transferred to 1.5 ml tubes and sonicated for 3 min and total protein amount were quantified using BCA Protein Assay Kit (Pierce). Equal amount of protein (30 μg) was loaded on SDS-PAGE gels. Proteins were transferred onto 0.2 μm PVDF membranes (BioRad) and probed with primary antibodies diluted in Tris-buffered saline supplemented with 0.1% Tween 20 (Merck # S6996184 505) and 3% bovine serum albumin (Rockland # BSA-50).
Puromycin (12D10) (Merck # MABE343) and β-actin (Sigma Aldrich # A5441) antibodies were used as primary antibody. A HRP-conjugated secondary antibody (Rockland) was employed to detect immune-reactive bands using enhanced chemiluminescence (ECL Western Blotting Substrate, Pierce). Quantification of protein bands was done by densitometry using ImageJ software.
Percent increase of protein synthesis in unstressed cells (without Tg treatment) in the presence of media alone or certain test compounds is shown in Table 3. The percentage levels were normalized to the media alone condition, which correspond to 100% protein synthesis.
Percent recovery of protein synthesis in stressed cells (with Tg treatment) due to the test compounds at 1 μM is also shown in Table 3. The levels were normalized to the media alone and Tg alone conditions, which correspond to 100% and 0% respectively.

IC50 (ATF4): > 1000 nM
SMILES: O=C(NC1CCN(CC(O)COc2ccc(Cl)c(F)c2)C1)c1ccc2cc(Cl)ccc2n1 (stereo not drawn) [Compound 53, 6-chloro-N-(1-(3-(4-chloro-3-fluorophenoxy)-2-hydroxypropyl)pyrrolidin-3-yl)quinoline-2-carboxamide]
activity at 1 µM [1]: 102%
% Recovery of protein synthesis (1 μM test compound) [1]: 37.93%

IC50 (ATF4): > 1000 nM
SMILES: O=C(NC1CCN(CCCOc2ccc(Cl)c(F)c2)C1)c1ccc2cc(Cl)ccc2n1 (stereo not drawn) [Compound 56, 6-chloro-N-(1-(3-(4-chloro-3-fluorophenoxy)propyl)pyrrolidin-3-yl)quinoline-2-carboxamide]
activity at 1 µM [1]: 100%
% Recovery of protein synthesis (1 μM test compound) [1]: 32.73%

IC50 (ATF4): > 100 nM
SMILES: O=C(NCC1CCN(C[C@@H](O)COc2ccc(Cl)c(F)c2)C1)c1ccc2cc(Cl)ccc2n1 (stereo partly drawn) [Compound 80, 6-chloro-N-((1-((R)-3-(4-chloro-3-fluorophenoxy)-2-hydroxypropyl)pyrrolidin-3-yl)methyl)quinoline-2-carboxamide]
activity at 1 µM [1]: 153%
% Recovery of protein synthesis (1 μM test compound) [1]: 23.9%

IC50 (ATF4): 1000 nM
SMILES: O=C(NCC1CCN(C[C@H](O)COc2ccc(Cl)c(F)c2)C1)c1ccc2cc(Cl)ccc2n1 (stereo partly drawn) [Compound 81, 6-chloro-N-((1-((S)-3-(4-chloro-3-fluorophenoxy)-2-hydroxypropyl)pyrrolidin-3-yl)methyl)quinoline-2-carboxamide]
activity at 1 µM [1]: 134%
% Recovery of protein synthesis (1 μM test compound) [1]: 38.7%

IC50 (ATF4): < 1000 nM
SMILES: O=C(COc1ccc(Cl)c(F)c1)NCC1CCC(NC(=O)c2ccc3cc(Cl)ccc3n2)C1 (stereo not drawn) [Compound 85, 6-chloro-N-(3-((2-(4-chloro-3-fluorophenoxy)acetamido)methyl)cyclopentyl)quinoline-2-carboxamide]
activity at 1 µM [1]: 88%

IC50 (ATF4): < 1000 nM
SMILES: O=C(COc1ccc(Cl)c(F)c1)NC1CCC(CNC(=O)c2ccc3cc(Cl)ccc3n2)C1 (stereo not drawn) [Compound 87, 6-chloro-N-((3-(2-(4-chloro-3-fluorophenoxy)acetamido)cyclopentyl)methyl)quinoline-2-carboxamide]
activity at 1 µM [1]: 83.9%

IC50 (ATF4): 2.8 nM
SMILES: O=C(COc1ccc(Cl)c(F)c1)NCC1CCN(NC(=O)c2ccc3cc(Cl)ccc3n2)C1 (stereo not drawn) [Compound 93, 6-chloro-N-(3-((2-(4-chloro-3-fluorophenoxy)acetamido)methyl)pyrrolidin-1-yl)quinoline-2-carboxamide]
activity at 1 µM [1]: 102%
% Recovery of protein synthesis (1 μM test compound) [1]: 51.4%

IC50 (ATF4): 24.3 nM
SMILES: O=C(N[C@H]1CC[C@H](NC[C@@H](O)COc2ccc(Cl)c(F)c2)C1)c1cc2cc(Cl)ccc2o1 [Compound 94, 5-chloro-N-((1S,3S)-3-(((R)-3-(4-chloro-3-fluorophenoxy)-2-hydroxypropyl)amino)cyclopentyl)benzofuran-2-carboxamide]
activity at 1 µM [1]: 169%
% Recovery of protein synthesis (1 μM test compound) [1]: 298.3%

IC50 (ATF4): < 1000 nM
SMILES: O=C(N[C@@H]1CC[C@@H](NC[C@@H](O)COc2ccc(Cl)c(F)c2)C1)c1cc2cc(Cl)ccc2o1 [Compound 95, 5-chloro-N-((1R,3R)-3-(((R)-3-(4-chloro-3-fluorophenoxy)-2-hydroxypropyl)amino)cyclopentyl)benzofuran-2-carboxamide]
activity at 1 µM [1]: 186%
% Recovery of protein synthesis (1 μM test compound) [1]: 170.5%

IC50 (ATF4): 4.97 nM
SMILES: O=C(COc1ccc(Cl)c(F)c1)NC[C@@H]1CCN(NC(=O)c2cc3cc(Cl)ccc3o2)C1 [Compound 96, (S)-5-chloro-N-(3-((2-(4-chloro-3-fluorophenoxy)acetamido)methyl)pyrrolidin-1-yl)benzofuran-2-carboxamide]
activity at 1 µM [1]: 110%
% Recovery of protein synthesis (1 μM test compound) [1]: 24.5%

IC50 (ATF4): 25 nM
SMILES: O=C(COc1ccc(Cl)c(F)c1)NC[C@H]1CCN(NC(=O)c2cc3cc(Cl)ccc3o2)C1 [Compound 97, (R)-5-chloro-N-(3-((2-(4-chloro-3-fluorophenoxy)acetamido)methyl)pyrrolidin-1-yl)benzofuran-2-carboxamide]
activity at 1 µM [1]: 109%

The next lines start with the compound.

SMILES: O=C(NC1CCC(NC[C@@H](O)COc2ccc(Cl)c(F)c2)C1)c1cc2cc(Cl)ccc2o1 (stereo partly drawn) [Compound 82, 5-chloro-N-(3-(((R)-3-(4-chloro-3-fluorophenoxy)-2-hydroxypropyl)amino)cyclopentyl)benzofuran-2-carboxamide]
IC50 (ATF4): > 1000 nM
activity at 1 µM [1]: 160%
% Recovery of protein synthesis (1 μM test compound) [1]: 176.4%

SMILES: O=C(NC1CCC(NC[C@H](O)COc2ccc(Cl)c(F)c2)C1)c1cc2cc(Cl)ccc2o1 (stereo partly drawn) [Compound 83, 5-chloro-N-(3-(((S)-3-(4-chloro-3-fluorophenoxy)-2-hydroxypropyl)amino)cyclopentyl)benzofuran-2-carboxamide]
IC50 (ATF4): > 1000 nM
activity at 1 µM [1]: 129%
% Recovery of protein synthesis (1 μM test compound) [1]: 175.2%

SMILES: O=C(COc1ccc(Cl)c(F)c1)NCC1CCC(NC(=O)COc2ccc(Cl)c(F)c2)C1 (stereo not drawn) [Compound 84, 2-(4-chloro-3-fluorophenoxy)-N-((3-(2-(4-chloro-3-fluorophenoxy)acetamido)cyclopentyl)methyl)acetamide]
IC50 (ATF4): > 100 nM
activity at 1 µM [1]: 80.3%

SMILES: O=C(COc1ccc(Cl)c(F)c1)NCC1CCC(NC(=O)c2cc3cc(Cl)ccc3o2)C1 (stereo not drawn) [Compound 86, 5-chloro-N-(3-((2-(4-chloro-3-fluorophenoxy)acetamido)methyl)cyclopentyl)benzofuran-2-carboxamide]
IC50 (ATF4): < 100 nM
activity at 1 µM [1]: 94.2%

SMILES: O=C(COc1ccc(Cl)c(F)c1)NC1CCC(CNC(=O)c2cc3cc(Cl)ccc3o2)C1 (stereo not drawn) [Compound 88, 5-chloro-N-((3-(2-(4-chloro-3-fluorophenoxy)acetamido)cyclopentyl)methyl)benzofuran-2-carboxamide]
IC50 (ATF4): < 1000 nM
activity at 1 µM [1]: 76.4%

SMILES: O=C(COc1ccc(Cl)c(F)c1)NCC1CCC(NCC(O)COc2ccc(Cl)c(F)c2)C1 (stereo not drawn) [Compound 89, 2-(4-chloro-3-fluorophenoxy)-N-((3-((3-(4-chloro-3-fluorophenoxy)-2-hydroxypropyl)amino)cyclopentyl)methyl)acetamide]
IC50 (ATF4): > 1000 nM
activity at 1 µM [1]: 119%
% Recovery of protein synthesis (1 μM test compound) [1]: 42.5%

SMILES: O=C(NC1CC[C@H](NC[C@@H](O)COc2ccc(Cl)c(F)c2)C1)c1cc2cc(Cl)ccc2o1 (stereo partly drawn) [Compound 90, 5-chloro-N-((3S)-3-(((R)-3-(4-chloro-3-fluorophenoxy)-2-hydroxypropyl)amino)cyclopentyl)benzofuran-2-carboxamide]
IC50 (ATF4): 57.8 nM
activity at 1 µM [1]: 210%
% Recovery of protein synthesis (1 μM test compound) [1]: 269.7%

SMILES: O=C(NC1CC[C@H](NC[C@H](O)COc2ccc(Cl)c(F)c2)C1)c1cc2cc(Cl)ccc2o1 (stereo partly drawn) [Compound 91, 5-chloro-N-((3S)-3-(((S)-3-(4-chloro-3-fluorophenoxy)-2-hydroxypropyl)amino)cyclopentyl)benzofuran-2-carboxamide]
IC50 (ATF4): 1240 nM
activity at 1 µM [1]: 190%
% Recovery of protein synthesis (1 μM test compound) [1]: 209.4%

SMILES: O=C(COc1ccc(Cl)c(F)c1)NCC1CCN(NC(=O)COc2ccc(Cl)c(F)c2)C1 (stereo not drawn) [Compound 92, 2-(4-chloro-3-fluorophenoxy)-N-(3-((2-(4-chloro-3-fluorophenoxy)acetamido)methyl)pyrrolidin-1-yl)acetamide]
IC50 (ATF4): 14.1 nM
activity at 1 µM [1]: 93.6%
% Recovery of protein synthesis (1 μM test compound) [1]: 45.8%
